Measured values: PubChem BioAssay (NCI)
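All cell lines were grown in 96-well plates and treated with compound for 48 hours. TGI: total growth inhibition.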

What was measured:
Assay in all cases: DTP human tumour cell line panel, 48 h
786-0 renal = tested on: 786-0 renal
A498 renal = tested on: A498 renal
A549 NSCLC = tested on: A549 NSCLC
ACHN renal = tested on: ACHN renal
CAKI-1 renal = tested on: CAKI-1 renal
CCRF-CEM leukemia = tested on: CCRF-CEM leukemia
COLO 205 colon = tested on: COLO 205 colon
DU-145 prostate = tested on: DU-145 prostate
EKVX NSCLC = tested on: EKVX NSCLC
HCC-2998 colon = tested on: HCC-2998 colon
HCT-116 colon = tested on: HCT-116 colon
HCT-15 colon = tested on: HCT-15 colon
HL-60(TB) leukemia = tested on: HL-60(TB) leukemia
HOP-62 NSCLC = tested on: HOP-62 NSCLC
HS 578T breast = tested on: HS 578T breast
HT29 colon = tested on: HT29 colon
IGROV1 ovarian = tested on: IGROV1 ovarian
K-562 leukemia = tested on: K-562 leukemia
KM12 colon = tested on: KM12 colon
LOX IMVI melanoma = tested on: LOX IMVI melanoma
M14 melanoma = tested on: M14 melanoma
MALME-3M melanoma = tested on: MALME-3M melanoma
MDA-MB-231 breast = tested on: MDA-MB-231 breast
MDA-MB-435 = tested on: MDA-MB-435
MDA-N = tested on: MDA-N
MOLT-4 leukemia = tested on: MOLT-4 leukemia
NCI-H226 lung = tested on: NCI-H226 lung
NCI-H23 lung = tested on: NCI-H23 lung
NCI-H460 lung = tested on: NCI-H460 lung
NCI-H522 lung = tested on: NCI-H522 lung
NCI/ADR-RES ovarian = tested on: NCI/ADR-RES ovarian
OVCAR-3 ovarian = tested on: OVCAR-3 ovarian
OVCAR-4 ovarian = tested on: OVCAR-4 ovarian
OVCAR-5 ovarian = tested on: OVCAR-5 ovarian
PC-3 prostate = tested on: PC-3 prostate
RPMI-8226 leukemia = tested on: RPMI-8226 leukemia
RXF 393 renal = tested on: RXF 393 renal
SF-268 CNS = tested on: SF-268 CNS
SF-295 CNS = tested on: SF-295 CNS
SF-539 CNS = tested on: SF-539 CNS
SK-MEL-2 melanoma = tested on: SK-MEL-2 melanoma
SK-MEL-28 melanoma = tested on: SK-MEL-28 melanoma
SK-MEL-5 melanoma = tested on: SK-MEL-5 melanoma
SK-OV-3 ovarian = tested on: SK-OV-3 ovarian
SN12C renal = tested on: SN12C renal
SNB-19 CNS = tested on: SNB-19 CNS
SNB-75 CNS = tested on: SNB-75 CNS
SR leukemia = tested on: SR leukemia
SW-620 colon = tested on: SW-620 colon
T-47D breast = tested on: T-47D breast
TK-10 renal = tested on: TK-10 renal
UACC-257 melanoma = tested on: UACC-257 melanoma
UACC-62 melanoma = tested on: UACC-62 melanoma
UO-31 renal = tested on: UO-31 renal
HOP-92 NSCLC = tested on: HOP-92 NSCLC
MCF7 breast = tested on: MCF7 breast
OVCAR-8 ovarian = tested on: OVCAR-8 ovarian
U251 CNS = tested on: U251 CNS

With `C=C1CCC2[C@](C)(CCC[C@]2(C)C(=O)O)[C@@H]1CCc1ccoc1` (stereo partly drawn) the TGI (786-0 renal) was > 100 µM, the TGI (A498 renal) was > 100 µM and the TGI (A549 NSCLC) was > 100 µM. For the same compound, the TGI (ACHN renal) was > 100 µM, the TGI (CAKI-1 renal) was > 100 µM and the TGI (CCRF-CEM leukemia) was > 100 µM. The TGI (COLO 205 colon) was 33 µM, the TGI (DU-145 prostate) was > 100 µM and the TGI (EKVX NSCLC) was > 100 µM. For the same compound, the TGI (HCC-2998 colon) was > 100 µM, the TGI (HCT-116 colon) was 88.4 µM and the TGI (HCT-15 colon) was > 100 µM. For the same compound, the TGI (HL-60(TB) leukemia) was 71.2 µM, the TGI (HOP-62 NSCLC) was > 100 µM and the TGI (HS 578T breast) was 80.3 µM. The TGI (HT29 colon) was 55.7 µM, the TGI (IGROV1 ovarian) was 84.8 µM and the TGI (K-562 leukemia) was > 100 µM. For the same compound, the TGI (KM12 colon) was 74.9 µM, the TGI (LOX IMVI melanoma) was 38 µM and the TGI (M14 melanoma) was > 100 µM. The TGI (MALME-3M melanoma) was > 100 µM, the TGI (MDA-MB-231 breast) was > 100 µM and the TGI (MDA-MB-435) was > 100 µM. The TGI (MDA-N) was > 100 µM, the TGI (MOLT-4 leukemia) was > 100 µM and the TGI (NCI-H226 lung) was 65.8 µM. The TGI (NCI-H23 lung) was 50.7 µM, the TGI (NCI-H460 lung) was > 100 µM and the TGI (NCI-H522 lung) was > 100 µM. The TGI (NCI/ADR-RES ovarian) was 98.2 µM, the TGI (OVCAR-3 ovarian) was 66 µM and the TGI (OVCAR-4 ovarian) was > 100 µM. For the same compound, the TGI (OVCAR-5 ovarian) was > 100 µM, the TGI (PC-3 prostate) was > 100 µM and the TGI (RPMI-8226 leukemia) was > 100 µM. The TGI (RXF 393 renal) was > 100 µM, the TGI (SF-268 CNS) was > 100 µM and the TGI (SF-295 CNS) was > 100 µM. For the same compound, the TGI (SF-539 CNS) was 99.4 µM, the TGI (SK-MEL-2 melanoma) was 85 µM and the TGI (SK-MEL-28 melanoma) was > 100 µM. For the same compound, the TGI (SK-MEL-5 melanoma) was 84.8 µM, the TGI (SK-OV-3 ovarian) was > 100 µM and the TGI (SN12C renal) was > 100 µM. For the same compound, the TGI (SNB-19 CNS) was > 100 µM, the TGI (SNB-75 CNS) was > 100 µM and the TGI (SR leukemia) was 70.4 µM. The TGI (SW-620 colon) was > 100 µM, the TGI (T-47D breast) was > 100 µM and the TGI (TK-10 renal) was 74.7 µM. The TGI (UACC-257 melanoma) was 83.5 µM, the TGI (UACC-62 melanoma) was > 100 µM and the TGI (UO-31 renal) was > 100 µM.

In the case of `COC(=O)CSc1nc2[nH]c(SC)c(C(N)=O)c2c(=O)n1-c1ccccc1`, the TGI (786-0 renal) is reported as > 10 µM, the TGI (A549 NSCLC) is reported as > 10 µM and the TGI (CAKI-1 renal) is reported as > 10 µM. The TGI (CCRF-CEM leukemia) was > 10 µM, the TGI (COLO 205 colon) was > 10 µM and the TGI (DU-145 prostate) was > 10 µM. The TGI (EKVX NSCLC) was > 10 µM, the TGI (HCC-2998 colon) was > 10 µM and the TGI (HCT-15 colon) was > 10 µM. For the same compound, the TGI (HL-60(TB) leukemia) was > 10 µM, the TGI (HOP-62 NSCLC) was > 10 µM and the TGI (HOP-92 NSCLC) was > 10 µM. The TGI (HT29 colon) was > 10 µM, the TGI (IGROV1 ovarian) was > 10 µM and the TGI (K-562 leukemia) was > 10 µM. For the same compound, the TGI (KM12 colon) was > 10 µM, the TGI (LOX IMVI melanoma) was > 10 µM and the TGI (M14 melanoma) was > 10 µM. For the same compound, the TGI (MALME-3M melanoma) was > 10 µM, the TGI (MCF7 breast) was > 10 µM and the TGI (MDA-MB-231 breast) was > 10 µM. The TGI (MDA-MB-435) was > 10 µM, the TGI (MDA-N) was > 10 µM and the TGI (MOLT-4 leukemia) was > 10 µM. The TGI (NCI-H23 lung) was > 10 µM, the TGI (OVCAR-4 ovarian) was > 10 µM and the TGI (OVCAR-8 ovarian) was > 10 µM. For the same compound, the TGI (PC-3 prostate) was > 10 µM, the TGI (RPMI-8226 leukemia) was > 10 µM and the TGI (RXF 393 renal) was > 10 µM. For the same compound, the TGI (SF-268 CNS) was > 10 µM, the TGI (SF-295 CNS) was > 10 µM and the TGI (SK-MEL-28 melanoma) was > 10 µM. The TGI (SK-MEL-5 melanoma) was > 10 µM, the TGI (SK-OV-3 ovarian) was > 10 µM and the TGI (SN12C renal) was > 10 µM. For the same compound, the TGI (SNB-75 CNS) was > 10 µM, the TGI (SR leukemia) was > 10 µM and the TGI (SW-620 colon) was > 10 µM. For the same compound, the TGI (T-47D breast) was > 10 µM, the TGI (TK-10 renal) was > 10 µM and the TGI (UACC-257 melanoma) was > 10 µM. For the same compound, the TGI (UACC-62 melanoma) was > 10 µM.

For `C=C1C2CC3CCC2C(OC(=O)c2ccccc2C(=O)O)C13` (stereo not drawn), the TGI (786-0 renal) was > 100 µM, the TGI (A498 renal) was > 100 µM and the TGI (A549 NSCLC) was > 100 µM. The TGI (ACHN renal) was > 100 µM, the TGI (CAKI-1 renal) was > 100 µM and the TGI (CCRF-CEM leukemia) was > 100 µM. For the same compound, the TGI (COLO 205 colon) was > 100 µM, the TGI (DU-145 prostate) was > 100 µM and the TGI (EKVX NSCLC) was > 100 µM. For the same compound, the TGI (HCC-2998 colon) was > 100 µM, the TGI (HCT-116 colon) was > 100 µM and the TGI (HCT-15 colon) was > 100 µM. For the same compound, the TGI (HL-60(TB) leukemia) was > 100 µM, the TGI (HOP-62 NSCLC) was > 100 µM and the TGI (HOP-92 NSCLC) was > 100 µM. The TGI (HS 578T breast) was > 100 µM, the TGI (HT29 colon) was > 100 µM and the TGI (IGROV1 ovarian) was > 100 µM. The TGI (K-562 leukemia) was > 100 µM, the TGI (KM12 colon) was > 100 µM and the TGI (LOX IMVI melanoma) was > 100 µM. For the same compound, the TGI (M14 melanoma) was > 100 µM, the TGI (MALME-3M melanoma) was > 100 µM and the TGI (MDA-MB-231 breast) was > 100 µM. The TGI (MDA-MB-435) was > 100 µM, the TGI (MDA-N) was > 100 µM and the TGI (MOLT-4 leukemia) was > 100 µM. For the same compound, the TGI (NCI-H226 lung) was > 100 µM, the TGI (NCI-H23 lung) was > 100 µM and the TGI (NCI-H460 lung) was > 100 µM. For the same compound, the TGI (NCI-H522 lung) was > 100 µM, the TGI (NCI/ADR-RES ovarian) was > 100 µM and the TGI (OVCAR-3 ovarian) was > 100 µM. For the same compound, the TGI (OVCAR-4 ovarian) was > 100 µM, the TGI (OVCAR-5 ovarian) was > 100 µM and the TGI (OVCAR-8 ovarian) was > 100 µM. The TGI (PC-3 prostate) was > 100 µM, the TGI (RXF 393 renal) was > 100 µM and the TGI (SF-268 CNS) was > 100 µM. The TGI (SF-295 CNS) was > 100 µM, the TGI (SF-539 CNS) was > 100 µM and the TGI (SK-MEL-2 melanoma) was > 100 µM. The TGI (SK-MEL-28 melanoma) was > 100 µM, the TGI (SK-MEL-5 melanoma) was > 100 µM and the TGI (SK-OV-3 ovarian) was > 100 µM. The TGI (SN12C renal) was > 100 µM, the TGI (SNB-19 CNS) was > 100 µM and the TGI (SNB-75 CNS) was > 100 µM. The TGI (SR leukemia) was > 100 µM, the TGI (SW-620 colon) was > 100 µM and the TGI (T-47D breast) was > 100 µM. For the same compound, the TGI (TK-10 renal) was > 100 µM, the TGI (U251 CNS) was > 100 µM and the TGI (UACC-257 melanoma) was > 100 µM. For the same compound, the TGI (UACC-62 melanoma) was > 100 µM and the TGI (UO-31 renal) was > 100 µM.
